Source: patent US20220251141A1, “IMMUNOMODULATORS” (Bristol-Myers Squibb Company, priority 2019, published 2022)
Numbered stars: 1 amine (or outer) side, 2 acyl side, 3 side chain; on linkers, the order of the positions; unused ones are H or OH. Bridge positions count the residues as written; N and C are the ends. Square brackets hold non-standard residues; d marks the D form. Side chains are listed from the residue outwards. Peptide text beside a SMILES is read from it. * marks the point of attachment. Trp(1-CH2CO2Me) = COC(=O)Cn1cc(C[C@H](N)C(=O)O)c2ccccc21; Trp(1-CH2COOH) = N[C@@H](Cc1cn(CC(=O)O)c2ccccc12)C(=O)O; NHCH2CH2Ph(3,4-OCH2O) = c1cc2c(cc1CCN*)OCO2; NH(1R-phenylethyl) = C[C@@H](N*)c1ccccc1; NHCH2CHPh2 = c1ccc(C(CN*)c2ccccc2)cc1; Dab(CONH2) = NC(=O)NCC[C@H](N)C(=O)O; NHCHPh2 = c1ccc(C(N*)c2ccccc2)cc1; Hyp = O=C(O)[C@@H]1C[C@@H](O)CN1; NMeNle = CCCC[C@H](NC)C(=O)O; NMeA = CN[C@@H](C)C(=O)O; Dab = NCC[C@H](N)C(=O)O; Dap = NC[C@H](N)C(=O)O; NH(heptyl) = CCCCCCCN*; CO = O=C([*:1])[*:2]; N(Me)OMe = CON(C)*; X1 = CC(=O)NC(=O)*

Target: T1, PD-1/PD-L1 (Homo sapiens, UniProt Q9NZQ7)
T1 construct: TVMV protease site linker (C); made in house; host or cells: HEK293T cells
Experiment: PD-1/PD-L1 Homogenous Time-Resolved Fluorescence (HTRF) binding assay
Settings: PD-L1-His 10 nM final, PD-1-Ig 20 nM final; inhibitors pre-incubated with PD-L1-His for 15 m
From the text: The ability of the compounds of formula (I) to bind to PD-L1 was investigated using a PD-1/PD-L1 Homogenous Time-Resolved Fluorescence (HTRF) binding assay.
The interaction of PD-1 and PD-L1 can be assessed using soluble, purified preparations of the extracellular domains of the two proteins. The PD-1 and PD-L1 protein extracellular domains were expressed as fusion proteins with detection tags, for PD-1, the tag was the Fc portion of Immunoglobulin (PD-1-Ig) and for PD-L1 it was the 6 histidine motif (PD-L1-His). All binding studies were performed in an HTRF assay buffer consisting of dPBS supplemented with 0.1% […] bovine serum albumin and 0.05% (v/v) Tween-20. For the h/PD-L1-His binding assay, inhibitors were pre-incubated with PD-L1-His (10 nM final) for 15 m in 4 μl of assay buffer, followed by addition of PD-1-Ig (20 nM final) in 1 μl of assay buffer and further incubation for 15 m. HTRF detection was achieved using europium cryptate-labeled anti-Ig (1 nM final) and allophycocyanin (APC) labeled anti-His (20 nM final). Antibodies were diluted in HTRF detection buffer and 5 μl was dispensed on top of the binding reaction. The reaction mixture was allowed to equilibrate for 30 minutes and the resulting signal (665 nm/620 nm ratio) was obtained using an EnVision fluorometer. Additional binding assays were established between the human proteins PD-1-Ig/PD-L2-His (20 & 5 nM, respectively) and CD80-His/PD-L1-Ig (100 & 10 nM, respectively).
Recombinant Proteins: Human PD-1 (25-167) with a C-terminal human Fc domain of immunoglobulin G (Ig) epitope tag [hPD-1 (25-167)-3S-IG] and human PD-L1 (18-239) with a C-terminal His epitope tag [hPD-L1(18-239)-TVMV-His] were expressed in HEK293T cells and purified sequentially by Protein A affinity chromatography and size exclusion chromatography. Human PD-L2-His and CD80-His was obtained through commercial sources.
Table 3 lists the IC50 values for representative examples of this disclosure measured in the PD-1/PD-L1 Homogenous Time-Resolved Fluorescence (HTRF) binding assay.

SMILES | IC50 [nM]
CCCC[C@H]1C(=O)N(C)[C@@H](CCCC)C(=O)N[C@@H](CC(C)C)C(=O)N[C@H](C(=O)NCC(N)=O)CSCC(=O)N[C@@H](Cc2ccc(O)cc2)C(=O)N(C)[C@@H](C)C(=O)N[C@@H](CC(N)=O)C(=O)N2CCC[C@H]2C(=O)N[C@@H](CNC(=O)NC(C)=O)C(=O)N[C@@H](CC(C)C)C(=O)N2C[C@H](O)C[C@H]2C(=O)N[C@@H](Cc2c[nH]c3ccccc23)C(=O)N[C@@H](CCNC(N)=O)C(=O)N[C@@H](Cc2cn(CC(=O)O)c3ccccc23)C(=O)N1C [Example 1030] ({CH2CO}-Y[NMeA]NP[Dap](X1)L[Hyp]W[Dab(CONH2)][Trp(1-CH2COOH)][NMeNle][NMeNle]LCG-NH2; thioether N-14) | 4
CCCC[C@H]1C(=O)N(C)[C@@H](CCCC)C(=O)N[C@@H](CC(C)C)C(=O)N[C@H](C(=O)NCC(N)=O)CSCC(=O)N[C@@H](Cc2ccc(O)cc2)C(=O)N(C)[C@@H](C)C(=O)N[C@@H](CC(N)=O)C(=O)N2CCC[C@H]2C(=O)N[C@@H](CNC(=O)NC(C)=O)C(=O)N[C@@H](CC(C)C)C(=O)N2C[C@H](O)C[C@H]2C(=O)N[C@@H](Cc2c[nH]c3ccccc23)C(=O)N[C@@H](CCNC(=O)NC(C)=O)C(=O)N[C@@H](Cc2cn(CC(=O)O)c3ccccc23)C(=O)N1C [Example 1031] ({CH2CO}-Y[NMeA]NP[Dap](X1)L[Hyp]W[Dab](X1)[Trp(1-CH2COOH)][NMeNle][NMeNle]LCG-NH2; thioether N-14) | 4.7
CCCC[C@H]1C(=O)N(C)[C@@H](CCCC)C(=O)N[C@@H](CC(C)C)C(=O)N[C@H](C(=O)NCC(N)=O)CSCC(=O)N[C@@H](Cc2ccc(O)cc2)C(=O)N(C)[C@@H](C)C(=O)N[C@@H](CC(N)=O)C(=O)N2CCC[C@H]2C(=O)N[C@@H](CNC(=O)N(C)C)C(=O)N[C@@H](CC(C)C)C(=O)N2C[C@H](O)C[C@H]2C(=O)N[C@@H](Cc2c[nH]c3ccccc23)C(=O)N[C@@H](CCNC(=O)N(C)C)C(=O)N[C@@H](Cc2cn(CC(=O)O)c3ccccc23)C(=O)N1C [Example 1032] ({CH2CO}-Y[NMeA]NP[Dap]([CO-NMe2])L[Hyp]W[Dab]([CO-NMe2])[Trp(1-CH2COOH)][NMeNle][NMeNle]LCG-NH2; thioether N-14) | 0.74
CCCCCCCNC(=O)NCC[C@@H]1NC(=O)[C@H](Cc2c[nH]c3ccccc23)NC(=O)[C@@H]2C[C@@H](O)CN2C(=O)[C@H](CC(C)C)NC(=O)[C@H](CNC(=O)NCCCCCCC)NC(=O)[C@@H]2CCCN2C(=O)[C@H](CC(N)=O)NC(=O)[C@H](C)N(C)C(=O)[C@H](Cc2ccc(O)cc2)NC(=O)CSC[C@@H](C(=O)NCC(N)=O)NC(=O)[C@H](CC(C)C)NC(=O)[C@H](CCCC)N(C)C(=O)[C@H](CCCC)N(C)C(=O)[C@H](Cc2cn(CC(=O)O)c3ccccc23)NC1=O [Example 1033] ({CH2CO}-Y[NMeA]NP[Dap]([CO-NH(heptyl)])L[Hyp]W[Dab]([CO-NH(heptyl)])[Trp(1-CH2COOH)][NMeNle][NMeNle]LCG-NH2; thioether N-14) | 7.6
CCCCCCCNC(=O)NCC[C@@H]1NC(=O)[C@H](Cc2c[nH]c3ccccc23)NC(=O)[C@@H]2C[C@@H](O)CN2C(=O)[C@H](CC(C)C)NC(=O)[C@H](CNC(=O)NCCCCCCC)NC(=O)[C@@H]2CCCN2C(=O)[C@H](CC(N)=O)NC(=O)[C@H](C)N(C)C(=O)[C@H](Cc2ccc(O)cc2)NC(=O)CSC[C@@H](C(=O)NCC(N)=O)NC(=O)[C@H](CC(C)C)NC(=O)[C@H](CCCC)N(C)C(=O)[C@H](CCCC)N(C)C(=O)[C@H](Cc2cn(CC(=O)O)c3ccccc23)NC1=O [Example 1035] ({CH2CO}-Y[NMeA]NP[Dap]([CO-NH(heptyl)])L[Hyp]W[Dab]([CO-NH(heptyl)])[Trp(1-CH2COOH)][NMeNle][NMeNle]LCG-NH2; thioether N-14) | 8.3
CCCC[C@H]1C(=O)N(C)[C@@H](CCCC)C(=O)N[C@@H](CC(C)C)C(=O)N[C@H](C(=O)NCC(N)=O)CSCC(=O)N[C@@H](Cc2ccc(O)cc2)C(=O)N(C)[C@@H](C)C(=O)N[C@@H](CC(N)=O)C(=O)N2CCC[C@H]2C(=O)N[C@@H](CNC(=O)N(C)OC)C(=O)N[C@@H](CC(C)C)C(=O)N2C[C@H](O)C[C@H]2C(=O)N[C@@H](Cc2c[nH]c3ccccc23)C(=O)N[C@@H](CCNC(=O)N(C)OC)C(=O)N[C@@H](Cc2cn(CC(=O)OC)c3ccccc23)C(=O)N1C [Example 1036] ({CH2CO}-Y[NMeA]NP[Dap]([CO-N(Me)OMe])L[Hyp]W[Dab]([CO-N(Me)OMe])[Trp(1-CH2CO2Me)][NMeNle][NMeNle]LCG-NH2; thioether N-14) | 1.4
CCCC[C@H]1C(=O)N(C)[C@@H](CCCC)C(=O)N[C@@H](CC(C)C)C(=O)N[C@H](C(=O)NCC(N)=O)CSCC(=O)N[C@@H](Cc2ccc(O)cc2)C(=O)N(C)[C@@H](C)C(=O)N[C@@H](CC(N)=O)C(=O)N2CCC[C@H]2C(=O)N[C@@H](CNC(=O)NC(c2ccccc2)c2ccccc2)C(=O)N[C@@H](CC(C)C)C(=O)N2C[C@H](O)C[C@H]2C(=O)N[C@@H](Cc2c[nH]c3ccccc23)C(=O)N[C@@H](CCNC(=O)NC(c2ccccc2)c2ccccc2)C(=O)N[C@@H](Cc2cn(CC(=O)O)c3ccccc23)C(=O)N1C [Example 1037] ({CH2CO}-Y[NMeA]NP[Dap]([CO-NHCHPh2])L[Hyp]W[Dab]([CO-NHCHPh2])[Trp(1-CH2COOH)][NMeNle][NMeNle]LCG-NH2; thioether N-14) | 5.1
CCCC[C@H]1C(=O)N(C)[C@@H](CCCC)C(=O)N[C@@H](CC(C)C)C(=O)N[C@H](C(=O)NCC(N)=O)CSCC(=O)N[C@@H](Cc2ccc(O)cc2)C(=O)N(C)[C@@H](C)C(=O)N[C@@H](CC(N)=O)C(=O)N2CCC[C@H]2C(=O)N[C@@H](CNC(=O)NCCc2ccc3c(c2)OCO3)C(=O)N[C@@H](CC(C)C)C(=O)N2C[C@H](O)C[C@H]2C(=O)N[C@@H](Cc2c[nH]c3ccccc23)C(=O)N[C@@H](CCN)C(=O)N[C@@H](Cc2cn(CC(=O)O)c3ccccc23)C(=O)N1C [Example 1039] ({CH2CO}-Y[NMeA]NP[Dap]([CO-NHCH2CH2Ph(3,4-OCH2O)])L[Hyp]W[Dab][Trp(1-CH2COOH)][NMeNle][NMeNle]LCG-NH2; thioether N-14) | 1.5
CCCC[C@H]1C(=O)N(C)[C@@H](CCCC)C(=O)N[C@@H](CC(C)C)C(=O)N[C@H](C(=O)NCC(N)=O)CSCC(=O)N[C@@H](Cc2ccc(O)cc2)C(=O)N(C)[C@@H](C)C(=O)N[C@@H](CC(N)=O)C(=O)N2CCC[C@H]2C(=O)N[C@@H](CNC(=O)NCC(c2ccccc2)c2ccccc2)C(=O)N[C@@H](CC(C)C)C(=O)N2C[C@H](O)C[C@H]2C(=O)N[C@@H](Cc2c[nH]c3ccccc23)C(=O)N[C@@H](CCN)C(=O)N[C@@H](Cc2cn(CC(=O)O)c3ccccc23)C(=O)N1C [Example 1040] ({CH2CO}-Y[NMeA]NP[Dap]([CO-NHCH2CHPh2])L[Hyp]W[Dab][Trp(1-CH2COOH)][NMeNle][NMeNle]LCG-NH2; thioether N-14) | 3
CCCC[C@H]1C(=O)N(C)[C@@H](CCCC)C(=O)N[C@@H](CC(C)C)C(=O)N[C@H](C(=O)NCC(N)=O)CSCC(=O)N[C@@H](Cc2ccc(O)cc2)C(=O)N(C)[C@@H](C)C(=O)N[C@@H](CC(N)=O)C(=O)N2CCC[C@H]2C(=O)N[C@@H](CNC(=O)N[C@H](C)c2ccccc2)C(=O)N[C@@H](CC(C)C)C(=O)N2C[C@H](O)C[C@H]2C(=O)N[C@@H](Cc2c[nH]c3ccccc23)C(=O)N[C@@H](CCN)C(=O)N[C@@H](Cc2cn(CC(=O)O)c3ccccc23)C(=O)N1C [Example 1041] ({CH2CO}-Y[NMeA]NP[Dap]([CO-NH(1R-phenylethyl)])L[Hyp]W[Dab][Trp(1-CH2COOH)][NMeNle][NMeNle]LCG-NH2; thioether N-14) | 4.4
